Legend:
Format in all cases: cell-based
[1] = tested on: OCRF-CEM; assay: NCI In-Vitro Testing, Leukemia
[2] = tested on: SK-MEL-23; assay: NCI In-Vitro Testing, Melanoma
[3] = tested on: UACC-62; assay: NCI In-Vitro Testing, Melanoma
[4] = tested on: OVCAR-6; assay: NCI In-Vitro Testing, Ovarian Cancer
[5] = tested on: NCWADR-RES; assay: NCI In-Vitro Testing, Breast Cancer
[6] = tested on: MDA-MB-231/ATCC; assay: NCI In-Vitro Testing, Breast Cancer

Nc1nc2c(c(Nc3ccc(Cl)cc3)n1)-c1ccccc1C2 [AAG145-136]
GI50 [1]: 3.12E−6 Molar | LC50 [1]: >1.00E−4 Molar | TGI [1]: >1.00E−4 Molar | Percent Growth ([1]; Log10 Concentration −4.0 Molar): 11% | Percent Growth ([1]; Log10 Concentration −5.0 Molar): 6% | Percent Growth ([1]; Log10 Concentration −6.0 Molar): 8% | Percent Growth ([1]; Log10 Concentration −7.0 Molar): 22% | Percent Growth ([1]; Log10 Concentration −8.0 Molar): 77% | GI50 [2]: 1.51E−8 Molar | LC50 [2]: >1.00E−4 Molar | TGI [2]: >1.00E−4 Molar | Percent Growth ([2]; Log10 Concentration −4.0 Molar): 41% | Percent Growth ([2]; Log10 Concentration −5.0 Molar): 32% | Percent Growth ([2]; Log10 Concentration −6.0 Molar): 54% | Percent Growth ([2]; Log10 Concentration −7.0 Molar): 97% | Percent Growth ([2]; Log10 Concentration −8.0 Molar): 105% | GI50 [3]: 6.41E−7 Molar | LC50 [3]: >1.00E−4 Molar | TGI [3]: >1.00E−4 Molar | Percent Growth ([3]; Log10 Concentration −4.0 Molar): 32% | Percent Growth ([3]; Log10 Concentration −5.0 Molar): 27% | Percent Growth ([3]; Log10 Concentration −6.0 Molar): 38% | Percent Growth ([3]; Log10 Concentration −7.0 Molar): 99% | Percent Growth ([3]; Log10 Concentration −8.0 Molar): 99% | GI50 [4]: 2.16E−7 Molar | LC50 [4]: >1.00E−4 Molar | TGI [4]: >1.00E−4 Molar | Percent Growth ([4]; Log10 Concentration −4.0 Molar): 18% | Percent Growth ([4]; Log10 Concentration −5.0 Molar): 25% | Percent Growth ([4]; Log10 Concentration −6.0 Molar): 36% | Percent Growth ([4]; Log10 Concentration −7.0 Molar): 57% | Percent Growth ([4]; Log10 Concentration −8.0 Molar): 102% | GI50 [5]: 7.87E−7 Molar | LC50 [5]: >1.00E−4 Molar | TGI [5]: >1.00E−4 Molar | Percent Growth ([5]; Log10 Concentration −4.0 Molar): 24% | Percent Growth ([5]; Log10 Concentration −5.0 Molar): 29% | Percent Growth ([5]; Log10 Concentration −6.0 Molar): 44% | Percent Growth ([5]; Log10 Concentration −7.0 Molar): 100% | Percent Growth ([5]; Log10 Concentration −8.0 Molar): 100% | GI50 [6]: 6.41E−7 Molar | LC50 [6]: >1.00E−4 Molar | TGI [6]: >1.00E−4 Molar | Percent Growth ([6]; Log10 Concentration −4.0 Molar): 30% | Percent Growth ([6]; Log10 Concentration −5.0 Molar): 29% | Percent Growth ([6]; Log10 Concentration −6.0 Molar): 45% | Percent Growth ([6]; Log10 Concentration −7.0 Molar): 70% | Percent Growth ([6]; Log10 Concentration −8.0 Molar): 92%
